Data: patent US20250129069A1, “TRIAZOLO WRN INHIBITORS” (Nimbus Wadjet, Inc., priority 2023, published 2025)

Key:
[1] = target: human Werner helicase (WRN, amino acids 517-1235 with L1074F point mutation) (Homo sapiens (Human), UniProt Q14191, L1074F); experiment: WRN (BV08) ADP-Glo assay; format: biochemical; details: human WRN (aa 517-1235, L1074F), read-out: ADP-Glo_hWRN_IC50
In short: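 ADP-Glo luminescence read after 60 min, 25 °C reaction of 0.15 nM WRN (517-1235, L1074F, Sf9-expressed, tag removed) with 0.1 nM DNA duplex and 5 μM ATP, following 15 min compound preincubation; 20 mM Bicine pH 7.5, 1% DMSO. IC50 from 3- or 4-parameter fit of % inhibition.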

[2] = tested on: p21 induction in HCT 116 cells; experiment: p21 induction in cells (In-Cell Western, p21/GAPDH ratio); format: cell-based; details: Homo sapiens, 24 h compound incubation, read-out: p21_EC50
In short: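 EC50 values come from nonlinear fits of percent activation, defined by the 800/700 nm p21-to-GAPDH ratio scaled between DMSO (low) and internal WRN inhibitor (high) controls. In-Cell Western read after 24 h compound exposure of HCT 116 cells at 37° C. Duplicate 11-point series, 2-fold steps, usually starting at 10 μM.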

Sequence of human Werner helicase (WRN, amino acids 517-1235 with L1074F point mutation) (Q14191 other isoform, or with tags, fused parts or gaps L1074F (already in the parent)): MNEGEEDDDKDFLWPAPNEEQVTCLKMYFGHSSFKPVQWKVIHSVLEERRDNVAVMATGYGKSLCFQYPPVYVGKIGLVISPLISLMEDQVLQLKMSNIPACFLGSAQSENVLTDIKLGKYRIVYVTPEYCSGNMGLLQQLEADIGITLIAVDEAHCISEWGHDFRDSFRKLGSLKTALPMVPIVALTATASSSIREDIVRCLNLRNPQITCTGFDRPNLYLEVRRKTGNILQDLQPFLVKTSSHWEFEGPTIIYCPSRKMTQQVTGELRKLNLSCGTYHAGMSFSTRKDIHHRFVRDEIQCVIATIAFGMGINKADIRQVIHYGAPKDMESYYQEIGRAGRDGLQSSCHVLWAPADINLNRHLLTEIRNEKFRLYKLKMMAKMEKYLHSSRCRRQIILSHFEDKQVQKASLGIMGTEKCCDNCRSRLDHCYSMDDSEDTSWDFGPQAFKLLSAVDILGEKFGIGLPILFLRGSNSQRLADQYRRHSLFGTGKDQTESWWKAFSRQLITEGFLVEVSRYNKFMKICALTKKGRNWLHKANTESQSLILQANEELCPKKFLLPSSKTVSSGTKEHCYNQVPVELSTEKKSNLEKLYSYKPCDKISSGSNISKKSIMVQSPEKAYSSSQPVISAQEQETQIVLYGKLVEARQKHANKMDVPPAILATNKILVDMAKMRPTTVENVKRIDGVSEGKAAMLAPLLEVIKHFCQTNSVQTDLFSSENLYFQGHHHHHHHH

Structure (SMILES)	IC50 [1] [nM]	EC50 [2] [nM]
CCc1c(N2CCN(C(=O)c3ncnc(C)c3O)CC2)c(=O)c2nn(-c3ccccn3)nc2n1CC(=O)NC12CC(C(C)C)(C1)C2 [Compound I-101, 2-{5-ethyl-6-[4-(5-hydroxy-6-methylpyrimidine-4-carbonyl)piperazin-1-yl]-7-oxo-2-(pyridin-2-yl)-2H,4H,7H-[1,2,3]triazolo[4,5-b]pyridin-4-yl}-N-[3-(propan-2-yl)bicyclo[1.1.1]pentan-1-yl]acetamide]	5 to 50	500 to 2000
CCc1c(N2CCN(C(=O)c3c(OC)ncc(C)c3O)CC2)c(=O)c2nn(-c3ccnc(OC)c3)nc2n1CC(=O)NC1CC2(CC(C)C2)C1 (stereo not shown) [Compound I-103, 2-{5-ethyl-6-[4-(4-hydroxy-2-methoxy-5-methylpyridine-3-carbonyl)piperazin-1-yl]-2-(2-methoxypyridin-4-yl)-7-oxo-2H,4H,7H-[1,2,3]triazolo[4,5-b]pyridin-4-yl}-N-{6-methylspiro[3.3]heptan-2-yl}acetamide]	5 to 50	2000 to 5000
CCc1c(N2CCN(C(=O)c3c(OC)ncc(C)c3O)CC2)c(=O)c2nn(-c3ccnc(OC)c3)nc2n1CC(=O)NC1CC2(C1)CC(F)(F)C2 [Compound I-104, N-{6,6-difluorospiro[3.3]heptan-2-yl}-2-{5-ethyl-6-[4-(4-hydroxy-2-methoxy-5-methylpyridine-3-carbonyl)piperazin-1-yl]-2-(2-methoxypyridin-4-yl)-7-oxo-2H,4H,7H-[1,2,3]triazolo[4,5-b]pyridin-4-yl}acetamide]	50 to 100	> 5000
CCc1c(N2CCN(C(=O)c3c(OC)ncc(C)c3O)CC2)c(=O)c2nn(-c3ccnc(OC)c3)nc2n1CC(=O)NC1CC2(C1)CC(C)(C)C2 [Compound I-105, N-{6,6-dimethylspiro[3.3]heptan-2-yl}-2-{5-ethyl-6-[4-(4-hydroxy-2-methoxy-5-methylpyridine-3-carbonyl)piperazin-1-yl]-2-(2-methoxypyridin-4-yl)-7-oxo-2H,4H,7H-[1,2,3]triazolo[4,5-b]pyridin-4-yl}acetamide]	5 to 50	> 5000
CCc1c(N2CCN(C(=O)c3c(OC)ncc(C)c3O)CC2)c(=O)c2nn(-c3ccnc(OC)c3)nc2n1CC(=O)NC1CC2(CCC(F)(F)CC2)C1 [Compound I-106, N-{7,7-difluorospiro[3.5]nonan-2-yl}-2-{5-ethyl-6-[4-(4-hydroxy-2-methoxy-5-methylpyridine-3-carbonyl)piperazin-1-yl]-2-(2-methoxypyridin-4-yl)-7-oxo-2H,4H,7H-[1,2,3]triazolo[4,5-b]pyridin-4-yl}acetamide]	5 to 50	> 5000
CCc1c(N2CCN(C(=O)c3cccc4ncoc34)[C@H]3CC[C@@H]32)c(=O)c2nn(-c3ccnc(OC)c3)nc2n1CC(=O)Nc1ccc(C(F)(F)F)cc1Cl [Compound I-107, 2-{6-[(1S,6S)-5-(1,3-benzoxazole-7-carbonyl)-2,5-diazabicyclo[4.2.0]octan-2-yl]-5-ethyl-2-(2-methoxypyridin-4-yl)-7-oxo-2H,4H,7H-[1,2,3]triazolo[4,5-b]pyridin-4-yl}-N-[2-chloro-4-(trifluoromethyl)phenyl]acetamide]	5 to 50	≤ 500
CCc1c(N2CCN(C(=O)c3cccc4ncoc34)[C@H]3CC[C@@H]32)c(=O)c2nn(-c3ccnc(OC)c3)nc2n1CC(=O)NC12CC(C(C)C)(C1)C2 [Compound I-108, 2-{6-[(1S,6S)-5-(1,3-benzoxazole-7-carbonyl)-2,5-diazabicyclo[4.2.0]octan-2-yl]-5-ethyl-2-(2-methoxypyridin-4-yl)-7-oxo-2H,4H,7H-[1,2,3]triazolo[4,5-b]pyridin-4-yl}-N-[3-(propan-2-yl)bicyclo[1.1.1]pentan-1-yl]acetamide]	5 to 50	500 to 2000
CCc1c(N2CCN(C(=O)c3c(O)ccc(C)c3OC)CC2)c(=O)c2nn(-c3ccnc(OC)c3)nc2n1CC(=O)NC12CC(C3CC3)(C1)C2 [Compound I-110, N-{3-cyclopropylbicyclo[1.1.1]pentan-1-yl}-2-{5-ethyl-6-[4-(6-hydroxy-2-methoxy-3-methylbenzoyl)piperazin-1-yl]-2-(2-methoxypyridin-4-yl)-7-oxo-2H,4H,7H-[1,2,3]triazolo[4,5-b]pyridin-4-yl}acetamide]	5 to 50	500 to 2000
CCc1c(N2CCN(C(=O)c3c(OC)ncc(C)c3O)CC2)c(=O)c2nn(C3=CCOCC3)nc2n1CC(=O)NC12CC(C(C)C)(C1)C2 [Compound I-111, 2-[2-(3,6-dihydro-2H-pyran-4-yl)-5-ethyl-6-[4-(4-hydroxy-2-methoxy-5-methylpyridine-3-carbonyl)piperazin-1-yl]-7-oxo-2H,4H,7H-[1,2,3]triazolo[4,5-b]pyridin-4-yl]-N-[3-(propan-2-yl)bicyclo[1.1.1]pentan-1-yl]acetamide]	5 to 50	≤ 500
CCc1c(N2CCN(C(=O)c3ncnc(C)c3O)CC2)c(=O)c2nn(-c3cnn(C4CC4)c3)nc2n1CC(=O)Nc1ccc(C(F)(F)F)cc1Cl [Compound I-112, N-[2-chloro-4-(trifluoromethyl)phenyl]-2-[2-(1-cyclopropyl-1H-pyrazol-4-yl)-5-ethyl-6-[4-(5-hydroxy-6-methylpyrimidine-4-carbonyl)piperazin-1-yl]-7-oxo-2H,4H,7H-[1,2,3]triazolo[4,5-b]pyridin-4-yl]acetamide]	5 to 50	≤ 500
CCc1c(N2CCN(C(=O)c3ncnc(C)c3O)CC2)c(=O)c2nn(-c3cc(C)n(C)n3)nc2n1CC(=O)Nc1ccc(C(F)(F)F)cc1Cl [Compound I-113, N-[2-chloro-4-(trifluoromethyl)phenyl]-2-[2-(1,5-dimethyl-1H-pyrazol-3-yl)-5-ethyl-6-[4-(5-hydroxy-6-methylpyrimidine-4-carbonyl)piperazin-1-yl]-7-oxo-2H,4H,7H-[1,2,3]triazolo[4,5-b]pyridin-4-yl]acetamide]	5 to 50	≤ 500

Second part, the molecule after the results:

IC50 [1] [nM]	EC50 [2] [nM]	Structure (SMILES)
5 to 50	≤ 500	CCc1c(N2CCN(C(=O)c3c(OC)ncc(C)c3O)CC2)c(=O)c2nn(C3=CCOCC3)nc2n1CC(=O)NC12CC(C3CC3)(C1)C2 [Compound I-97, N-{3-cyclopropylbicyclo[1.1.1]pentan-1-yl}-2-[2-(3,6-dihydro-2H-pyran-4-yl)-5-ethyl-6-[4-(4-hydroxy-2-methoxy-5-methylpyridine-3-carbonyl)piperazin-1-yl]-7-oxo-2H,4H,7H-[1,2,3]triazolo[4,5-b]pyridin-4-yl]acetamide]
5 to 50	≤ 500	CCOc1ncc(C)c(O)c1C(=O)N1CCN(c2c(CC)n(CC(=O)NC34CC(C(C)C)(C3)C4)c3nn(-c4ccnc(OC)c4)nc3c2=O)CC1 [Compound I-98, 2-{6-[4-(2-ethoxy-4-hydroxy-5-methylpyridine-3-carbonyl)piperazin-1-yl]-5-ethyl-2-(2-methoxypyridin-4-yl)-7-oxo-2H,4H,7H-[1,2,3]triazolo[4,5-b]pyridin-4-yl}-N-[3-(propan-2-yl)bicyclo[1.1.1]pentan-1-yl]acetamide]
5 to 50	500 to 2000	CCc1c(N2CCN(C(=O)c3c(OC)ncc(C)c3O)CC2)c(=O)c2nn(-c3ccnc(OC)c3)nc2n1CC(=O)NC1CC2(CCCC2)C1 [Compound I-99, 2-{5-ethyl-6-[4-(4-hydroxy-2-methoxy-5-methylpyridine-3-carbonyl)piperazin-1-yl]-2-(2-methoxypyridin-4-yl)-7-oxo-2H,4H,7H-[1,2,3]triazolo[4,5-b]pyridin-4-yl}-N-{spiro[3.4]octan-2-yl}acetamide]
5 to 50	≤ 500	CCc1c(N2CCN(C(=O)c3c(OC)ncc(C)c3O)[C@H]3CC[C@@H]32)c(=O)c2nn(-c3ccnc(C)c3)nc2n1CC(=O)Nc1ccc(C(F)(F)F)cc1Cl [Compound I-100, N-[2-chloro-4-(trifluoromethyl)phenyl]-2-{5-ethyl-6-[(1S,6S)-5-(4-hydroxy-2-methoxy-5-methylpyridine-3-carbonyl)-2,5-diazabicyclo[4.2.0]octan-2-yl]-2-(2-methylpyridin-4-yl)-7-oxo-2H,4H,7H-[1,2,3]triazolo[4,5-b]pyridin-4-yl}acetamide]
≤ 5	≤ 500	CCc1c(N2CCN(C(=O)c3c(OC)ncc(C)c3O)[C@H]3CC[C@@H]32)c(=O)c2nn(-c3ccnc(OC)c3)nc2n1CC(=O)Nc1ccc(C(F)(F)F)cc1F [Compound I-102, 2-{5-ethyl-6-[(1S,6S)-5-(4-hydroxy-2-methoxy-5-methylpyridine-3-carbonyl)-2,5-diazabicyclo[4.2.0]octan-2-yl]-2-(2-methoxypyridin-4-yl)-7-oxo-2H,4H,7H-[1,2,3]triazolo[4,5-b]pyridin-4-yl}-N-[2-fluoro-4-(trifluoromethyl)phenyl]acetamide]
≤ 5	≤ 500	CCc1c(N2CCN(C(=O)c3ncc4c(c3O)OCC4)CC2)c(=O)c2nn(C3=CCOCC3)nc2n1CC(=O)Nc1ccc(C(F)(F)F)cc1Cl [Compound I-109, N-[2-chloro-4-(trifluoromethyl)phenyl]-2-[2-(3,6-dihydro-2H-pyran-4-yl)-5-ethyl-6-(4-{7-hydroxy-2H,3H-furo[3,2-c]pyridine-6-carbonyl}piperazin-1-yl)-7-oxo-2H,4H,7H-[1,2,3]triazolo[4,5-b]pyridin-4-yl]acetamide]
